The text below walks through data of patent US9493426B2, “Quinazolinone derivatives useful as FGFR kinase modulators” (priority 2013, dated 2016).

The target in data set [1] is T1, Ba/F3-FGFR1-transfected cells (Homo sapiens, UniProt P11362).
T1 construct: other: minus IL3; 24 hours, Alamar Blue
Nature of the data set: Ba/F3-FGFR1 (minus IL3 or plus IL3) cellular proliferation assay. It counts as cell-based. The note with it: 24 hours, Alamar Blue. Here is the method: Ba/F3-FGFR1 (Minus IL3 or Plus IL3) (Cellular Proliferation Assay)
(§1) In a 384 well plate, 100 nl of compound dilution in DMSO was sprayed before adding 50 μl cell culture medium (phenol red free RPMI-1640, 10% FBS, 2 mM L-Glutamine and 50 μg/ml Gentamycin) containing 20000 cells per well of Ba/F3-FGFR1-transfected cells. Cells were put in an incubator at 37° C. and 5% CO2. After 24 hours, 10 μl of Alamar Blue solution (0.5 mM K3Fe(CN)6, 0.5 mM K4Fe(CN)6, 0.15 mM Resazurin and 100 mM Phosphate Buffer) was added to the wells, incubated for 4 hours at 37° C. and 5% CO2 before RFU's (Relative Fluorescence Units) (ex. 540 nm., em. 590 nm.) were measured in a fluorescence plate reader.
(§2) In this assay, the inhibitory effect of different compound concentrations (range 10 μM to 0.1 nM) was determined and used to calculate an IC50 (M) and pIC50 (−log IC50) value. As a counterscreen the same experiment was performed in the presence of 10 ng/ml murine IL3.
Background: Resazurin is reduced to fluorescent resorufin, in cell work by metabolically active cells.

Another data set deals with KDR (h) (Homo sapiens, UniProt P35968). Nature of the data set: KDR (VEGFR2) (enzymatic assay), TR-FRET. It counts as biochemical. The note with it: 3 μM ATP; pIC50 = -log IC50 (M); read-out: VEGFR KDR pIC50 (converted). Here is the method:
KDR (VEGFR2) (Enzymatic Assay)
In a final reaction volume of 30 μL, KDR (h) (150 ng/ml) was incubated with 50 mM HEPES pH 7.5, 6 mM MnCl2, 1 mM DTT, 0.1 mM Na3VO4, 0.01% Triton-X-100, 500 nM Btn-Flt3 and 3 μM ATP in the presence of compound (1% DMSO final). After incubation for 120 minutes at room temperature the reaction was stopped with 2.27 nM EU-anti P-Tyr, 7 mM EDTA, 31.25 nM SA-XL-665 and 0.02% BSA which was present for 60 minutes at room temperature. Time-Resolved Fluorescence Resonance Energy Transfer (TR-FRET) signal (ex340 nm. Em 620 nm, em 655 nm) was measured afterwards and results are expressed in RFU (Relative Fluorescence Units). In this assay, the inhibitory effect of different compound concentrations (range 10 μM to 0.1 nM) was determined and used to calculate an IC50 (M) and pIC50 (−log IC50) value.
(Time-resolved FRET reads energy transfer from a long-lived donor to a nearby acceptor.)

The next data set concerns the target FGFR4 (h) (Homo sapiens, UniProt P22455). Nature of the data set: FGFR4 (enzymatic assay), TR-FRET. The note with it: 5 μM ATP; pIC50 = -log IC50 (M); read-out: FGFR 4 pIC50 (converted). Format: biochemical.
The target of a further data set is FGFR1 (h) (Homo sapiens, UniProt P11362). The data set is described as follows: FGFR1 (enzymatic assay), TR-FRET. Format: biochemical.
For data set [2], the target named is Ba/F3-FGFR4-transfected cells (Homo sapiens, UniProt P22455, cells depend on it, form not given). Nature of the data set: Ba/F3-FGFR4 cellular proliferation assay. The settings on record: 24 hours, Alamar Blue. It counts as cell-based. Here is the method:
Ba/F3-FGFR4 (Cellular Proliferation Assay)
as §1, with “Ba/F3-FGFR4-transfected” for “Ba/F3-FGFR1-transfected”
In this assay, the inhibitory effect of different compound concentrations (range 10 μM to 0.1 nM) was determined and used to calculate an IC50 (M) and pIC50 (−log IC50) value.

A further data set deals with FGFR3 (h) (Homo sapiens, UniProt P22607). Nature of the data set: FGFR3 (enzymatic assay), TR-FRET. It counts as biochemical. The note with it: for IC50: 25 μM ATP, pIC50 = -log IC50 (M), read-out: FGFR3 pIC50 (converted).
The target of another data set is FGFR2 (h) (Homo sapiens, UniProt P21802). The data set is described as follows: FGFR2 (enzymatic assay), TR-FRET. Format: biochemical. The settings on record: for IC50: 0.4 μM ATP, pIC50 = -log IC50 (M), read-out: FGFR 2 pIC50 (converted).
In data set [3] the target is T2, Ba/F3-KDR-transfected cells (Homo sapiens, UniProt P35968, cells depend on it, form not given).
T2 construct: BAF3-KDR (MIN IL3 pIC50); other: minus IL3; 24 hours, Alamar Blue
Nature of the data set: Ba/F3-KDR (minus IL3 or plus IL3) cellular proliferation assay. Format: cell-based. The note with it: 24 hours, Alamar Blue. How it is done:
Ba/F3-KDR (Minus IL3 or Plus IL3) (Cellular Proliferation Assay)
as §1, with “Ba/F3-KDR-transfected” for “Ba/F3-FGFR1-transfected”
as §2

The target of data set [4] is T3, Ba/F3-FGFR3-transfected cells (Homo sapiens, UniProt P22607, cells depend on it, form not given).
T3 construct: BAF3-FGFR3 (MIN IL3 pIC50); other: minus IL3; 24 hours, Alamar Blue
The data set is described as follows: Ba/F3-FGFR3 (minus IL3 or plus IL3) cellular proliferation assay. It counts as cell-based. The note with it: 24 hours, Alamar Blue. Here is the method:
Ba/F3-FGFR3 (Minus IL3 or Plus IL3) (Cellular Proliferation Assay)
as §1, with “Ba/F3-FGFR3-transfected” for “Ba/F3-FGFR1-transfected”
as §2

pIC50: −log10 of the molar value. Like-named read-outs stand apart in the source and are kept apart here.

KDR (h), sequence (P35968 20-1356): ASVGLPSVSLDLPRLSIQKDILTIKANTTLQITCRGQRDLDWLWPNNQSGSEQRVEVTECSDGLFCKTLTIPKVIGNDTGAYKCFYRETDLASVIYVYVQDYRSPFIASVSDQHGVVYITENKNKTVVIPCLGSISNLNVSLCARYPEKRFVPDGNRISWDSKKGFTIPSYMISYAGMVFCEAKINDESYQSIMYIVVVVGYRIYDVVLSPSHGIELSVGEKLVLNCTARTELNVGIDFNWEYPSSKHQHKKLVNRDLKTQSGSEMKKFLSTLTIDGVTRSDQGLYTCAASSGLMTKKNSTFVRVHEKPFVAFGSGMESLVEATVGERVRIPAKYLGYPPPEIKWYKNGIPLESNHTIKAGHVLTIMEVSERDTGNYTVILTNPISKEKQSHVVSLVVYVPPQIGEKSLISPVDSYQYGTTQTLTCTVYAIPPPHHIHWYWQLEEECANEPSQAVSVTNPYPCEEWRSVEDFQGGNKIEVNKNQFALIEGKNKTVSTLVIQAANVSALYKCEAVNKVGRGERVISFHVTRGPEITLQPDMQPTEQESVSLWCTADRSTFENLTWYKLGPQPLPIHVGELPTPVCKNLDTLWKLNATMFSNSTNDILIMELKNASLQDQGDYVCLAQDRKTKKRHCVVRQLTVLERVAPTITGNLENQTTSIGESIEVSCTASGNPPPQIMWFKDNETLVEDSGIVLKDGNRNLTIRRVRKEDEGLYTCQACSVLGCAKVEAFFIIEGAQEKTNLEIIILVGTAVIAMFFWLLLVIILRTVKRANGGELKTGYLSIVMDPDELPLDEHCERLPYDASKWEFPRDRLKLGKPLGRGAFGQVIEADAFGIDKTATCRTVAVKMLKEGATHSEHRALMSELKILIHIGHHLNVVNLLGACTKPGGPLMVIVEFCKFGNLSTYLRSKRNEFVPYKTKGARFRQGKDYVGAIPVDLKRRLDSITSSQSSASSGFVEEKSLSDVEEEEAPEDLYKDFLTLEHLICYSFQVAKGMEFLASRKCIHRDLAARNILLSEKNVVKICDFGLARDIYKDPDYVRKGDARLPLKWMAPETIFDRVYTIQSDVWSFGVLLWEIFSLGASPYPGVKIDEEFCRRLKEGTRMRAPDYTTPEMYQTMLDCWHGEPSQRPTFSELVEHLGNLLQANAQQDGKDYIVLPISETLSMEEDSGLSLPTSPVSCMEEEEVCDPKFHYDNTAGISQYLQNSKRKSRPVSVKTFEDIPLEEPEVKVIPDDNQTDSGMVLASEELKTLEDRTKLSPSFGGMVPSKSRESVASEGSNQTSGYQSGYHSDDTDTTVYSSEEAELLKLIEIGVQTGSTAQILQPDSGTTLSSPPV
FGFR2 (h), sequence (P21802 22-821): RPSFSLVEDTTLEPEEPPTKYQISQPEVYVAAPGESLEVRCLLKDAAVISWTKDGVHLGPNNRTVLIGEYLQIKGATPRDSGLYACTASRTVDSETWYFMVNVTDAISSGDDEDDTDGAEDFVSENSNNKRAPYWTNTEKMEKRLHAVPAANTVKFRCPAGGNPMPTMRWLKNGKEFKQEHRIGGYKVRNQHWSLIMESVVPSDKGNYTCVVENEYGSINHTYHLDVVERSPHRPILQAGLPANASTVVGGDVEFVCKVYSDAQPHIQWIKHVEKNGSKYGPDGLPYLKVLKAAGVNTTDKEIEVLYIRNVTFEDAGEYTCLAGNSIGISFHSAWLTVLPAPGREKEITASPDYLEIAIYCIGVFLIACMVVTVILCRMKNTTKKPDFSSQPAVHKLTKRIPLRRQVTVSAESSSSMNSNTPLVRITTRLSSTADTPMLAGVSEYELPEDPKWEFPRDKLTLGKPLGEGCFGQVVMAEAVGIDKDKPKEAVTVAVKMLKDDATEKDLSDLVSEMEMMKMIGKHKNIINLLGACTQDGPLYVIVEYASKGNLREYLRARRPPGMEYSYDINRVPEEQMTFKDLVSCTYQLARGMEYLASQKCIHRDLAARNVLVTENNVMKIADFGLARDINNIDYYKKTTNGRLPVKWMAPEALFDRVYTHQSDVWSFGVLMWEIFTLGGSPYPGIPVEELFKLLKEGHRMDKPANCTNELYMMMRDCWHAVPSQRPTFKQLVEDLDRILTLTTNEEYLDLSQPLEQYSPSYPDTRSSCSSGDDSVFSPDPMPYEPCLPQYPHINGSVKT
T1 sequence (P11362 whole entry, change not shown): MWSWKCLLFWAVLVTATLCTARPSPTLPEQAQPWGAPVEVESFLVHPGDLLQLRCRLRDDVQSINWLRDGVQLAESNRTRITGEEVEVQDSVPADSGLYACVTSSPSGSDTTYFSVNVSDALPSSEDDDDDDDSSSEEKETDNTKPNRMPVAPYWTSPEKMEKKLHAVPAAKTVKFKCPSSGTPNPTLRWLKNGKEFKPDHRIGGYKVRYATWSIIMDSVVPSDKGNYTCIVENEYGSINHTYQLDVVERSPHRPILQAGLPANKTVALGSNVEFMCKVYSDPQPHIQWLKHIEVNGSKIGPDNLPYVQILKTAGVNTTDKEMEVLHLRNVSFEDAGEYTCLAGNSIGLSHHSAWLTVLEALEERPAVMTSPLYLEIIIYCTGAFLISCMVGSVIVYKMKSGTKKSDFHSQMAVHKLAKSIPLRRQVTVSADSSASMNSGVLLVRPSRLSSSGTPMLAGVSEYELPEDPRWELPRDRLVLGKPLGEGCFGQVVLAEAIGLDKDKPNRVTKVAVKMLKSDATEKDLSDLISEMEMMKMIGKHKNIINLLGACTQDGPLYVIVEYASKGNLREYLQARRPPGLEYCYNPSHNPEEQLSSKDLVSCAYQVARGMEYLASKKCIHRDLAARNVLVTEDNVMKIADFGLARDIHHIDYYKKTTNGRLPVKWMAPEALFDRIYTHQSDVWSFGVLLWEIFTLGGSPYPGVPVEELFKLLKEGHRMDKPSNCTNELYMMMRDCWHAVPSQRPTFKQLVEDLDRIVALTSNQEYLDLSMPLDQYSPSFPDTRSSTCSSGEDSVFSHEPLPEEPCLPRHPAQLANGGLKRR
FGFR4 (h), sequence (P22455 22-802): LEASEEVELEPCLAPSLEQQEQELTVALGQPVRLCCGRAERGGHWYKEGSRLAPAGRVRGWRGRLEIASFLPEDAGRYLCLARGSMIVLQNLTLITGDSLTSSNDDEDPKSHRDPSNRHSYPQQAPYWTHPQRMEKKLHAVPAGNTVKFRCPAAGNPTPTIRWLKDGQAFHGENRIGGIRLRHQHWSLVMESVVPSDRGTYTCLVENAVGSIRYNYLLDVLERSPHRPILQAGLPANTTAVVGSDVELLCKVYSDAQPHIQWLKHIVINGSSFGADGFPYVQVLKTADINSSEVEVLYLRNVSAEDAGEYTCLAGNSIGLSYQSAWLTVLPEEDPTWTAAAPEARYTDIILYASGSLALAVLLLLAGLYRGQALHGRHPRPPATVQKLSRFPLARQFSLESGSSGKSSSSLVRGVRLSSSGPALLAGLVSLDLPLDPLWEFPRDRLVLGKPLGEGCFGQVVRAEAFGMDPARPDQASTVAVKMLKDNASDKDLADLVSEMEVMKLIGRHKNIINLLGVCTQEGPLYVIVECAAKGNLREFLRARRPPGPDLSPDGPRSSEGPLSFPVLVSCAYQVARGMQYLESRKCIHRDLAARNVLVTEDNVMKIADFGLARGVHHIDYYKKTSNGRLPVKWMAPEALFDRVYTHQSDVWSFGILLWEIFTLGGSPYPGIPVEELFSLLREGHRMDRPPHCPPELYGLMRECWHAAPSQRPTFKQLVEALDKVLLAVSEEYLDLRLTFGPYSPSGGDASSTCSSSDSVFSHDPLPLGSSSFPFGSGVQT
T2 sequence (P35968 whole entry, looked up, change not shown): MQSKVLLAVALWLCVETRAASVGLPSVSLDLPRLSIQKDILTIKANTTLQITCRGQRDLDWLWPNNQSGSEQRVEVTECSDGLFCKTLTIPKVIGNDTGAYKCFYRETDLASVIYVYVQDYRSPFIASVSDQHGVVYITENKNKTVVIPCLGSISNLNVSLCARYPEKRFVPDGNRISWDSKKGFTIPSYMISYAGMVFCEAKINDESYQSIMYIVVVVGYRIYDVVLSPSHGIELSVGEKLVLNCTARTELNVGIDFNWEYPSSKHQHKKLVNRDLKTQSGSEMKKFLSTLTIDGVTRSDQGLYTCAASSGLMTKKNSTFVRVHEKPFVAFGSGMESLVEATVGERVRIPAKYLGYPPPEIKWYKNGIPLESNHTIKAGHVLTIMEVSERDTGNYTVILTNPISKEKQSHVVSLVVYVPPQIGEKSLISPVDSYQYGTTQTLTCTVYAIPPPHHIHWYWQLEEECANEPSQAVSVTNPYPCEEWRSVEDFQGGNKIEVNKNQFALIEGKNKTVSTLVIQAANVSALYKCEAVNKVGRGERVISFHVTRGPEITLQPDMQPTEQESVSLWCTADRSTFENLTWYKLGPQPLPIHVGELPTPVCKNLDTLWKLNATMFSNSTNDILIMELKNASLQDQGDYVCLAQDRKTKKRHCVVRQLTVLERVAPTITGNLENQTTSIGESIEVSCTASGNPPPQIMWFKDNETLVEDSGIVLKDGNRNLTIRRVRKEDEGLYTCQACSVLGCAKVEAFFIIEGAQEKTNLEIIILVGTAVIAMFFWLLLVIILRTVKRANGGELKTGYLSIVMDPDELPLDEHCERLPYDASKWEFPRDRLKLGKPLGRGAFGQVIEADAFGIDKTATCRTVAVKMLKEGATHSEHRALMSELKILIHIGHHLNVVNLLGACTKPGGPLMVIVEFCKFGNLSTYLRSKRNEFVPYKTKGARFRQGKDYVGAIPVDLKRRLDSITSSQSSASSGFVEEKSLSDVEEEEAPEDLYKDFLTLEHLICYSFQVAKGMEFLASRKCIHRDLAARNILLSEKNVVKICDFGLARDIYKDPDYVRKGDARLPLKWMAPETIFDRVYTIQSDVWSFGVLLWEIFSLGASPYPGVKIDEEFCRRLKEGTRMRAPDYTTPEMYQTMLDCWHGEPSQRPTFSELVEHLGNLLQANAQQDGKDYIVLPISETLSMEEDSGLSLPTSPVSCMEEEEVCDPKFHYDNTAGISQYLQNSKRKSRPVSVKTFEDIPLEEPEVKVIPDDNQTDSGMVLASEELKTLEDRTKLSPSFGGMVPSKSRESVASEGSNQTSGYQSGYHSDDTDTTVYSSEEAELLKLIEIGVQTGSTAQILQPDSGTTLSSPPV

As to `COc1cc(OC)c(Cl)c(N(CCNC(C)C)c2ccc3ncn(-c4cnn(C)c4)c(=O)c3c2)c1Cl` [Compound 11], the melting point (in general, the temperature, or range, at which the solid turns liquid) came out at 195 °C. Besides, in data set [1], the “BAF3-FGFR1 (MIN IL3 pIC50)” value turned out to be 7.4. At KDR (h), the IC50 was 5.01e-07 M. Also, at FGFR4 (h), the IC50 was 1.58e-07 M. Also, the pIC50 (in general, the IC50 on a negative log10 scale, so that one unit is a factor of ten) at FGFR1 (h) was 7.90. Further, the “BAF3-FGFR4 (pIC50)” value in data set [2] was determined as 6.3. Besides, the IC50 on FGFR3 (h) is 3.98e-08 M. At FGFR2 (h), the IC50 was 6.31e-08 M. The “BAF3-KDR (MIN IL3 pIC50)” value in data set [3] is recorded as 5.4. Moreover, in data set [4], the “BAF3-FGFR3 (MIN IL3 pIC50)” value came to 7.3.

`COc1cc(OC)c(F)c(N(Cc2ncc[nH]2)c2ccc3ncn(-c4cnn(C)c4)c(=O)c3c2)c1` [Compound 15]: the melting point was found to be 212 °C. In addition, the “BAF3-FGFR1 (MIN IL3 pIC50)” value in data set [1] stood at 6.7. Further, at KDR (h), the IC50 was 3.98e-07 M. Also, the IC50 on FGFR4 (h) was 7.94e-09 M. This molecule also showed a pIC50 at FGFR1 (h) of 8.30. In addition, the “BAF3-FGFR4 (pIC50)” value in data set [2] was determined as 5.8. The IC50 at FGFR3 (h) was 2.51e-09 M. At FGFR2 (h), this molecule showed a negative logarithm of the IC50 (pIC50) of 8.30. Moreover, the “BAF3-KDR (MIN IL3 pIC50)” value in [3] is reported as less than 5. Further, the “BAF3-FGFR3 (MIN IL3 pIC50)” value in data set [4] is approximately 7.15.

With `COc1cc(OC)c(F)c(N(CCO)c2ccc3ncn(-c4cnn(C)c4)c(=O)c3c2)c1` [Compound 16], the melting point was determined as 164 °C. In [1], the “BAF3-FGFR1 (MIN IL3 pIC50)” value amounted to 6.3. The IC50 on KDR (h) is 2e-07 M. Further, the IC50 on FGFR4 (h) is 2.51e-08 M. On FGFR1 (h), the pIC50 was 7.90. Also, the “BAF3-FGFR4 (pIC50)” value in data set [2] was determined as 5.7. Moreover, on FGFR3 (h), the IC50 is 2.51e-09 M. The IC50 on FGFR2 (h) is 5.01e-09 M. Also, in data set [3], the “BAF3-KDR (MIN IL3 pIC50)” value is 5.2. Moreover, in data set [4], the “BAF3-FGFR3 (MIN IL3 pIC50)” value worked out at 6.4.

In turn, `COc1cc(OC)c(F)c(N(CCNC(C)C)c2ccc3ncn(-c4cnn(C)c4)c(=O)c3c2)c1` [Compound 17] gave a melting point of 132 °C. Also, in data set [1], the “BAF3-FGFR1 (MIN IL3 pIC50)” value is 7.6. Besides, the IC50 on KDR (h) is 1.26e-07 M. At FGFR4 (h), the IC50 was 3.16e-08 M. At FGFR1 (h), this molecule gave a pIC50 of 8.10. Further, the “BAF3-FGFR4 (pIC50)” value in [2] is 6.8. For the same molecule, on FGFR3 (h), the IC50 is 1.58e-08 M. Besides, the IC50 on FGFR2 (h) is 1e-08 M. Moreover, the “BAF3-KDR (MIN IL3 pIC50)” value in [3] is 5.5. Moreover, the “BAF3-FGFR3 (MIN IL3 pIC50)” value in [4] turned out to be 7.7.

Take `COc1cc(OC)c(F)c(N(CCO)c2ccc3ncn(-c4cnn(C)c4)c(=O)c3c2)c1F` [Compound 18]: the melting point was 165 °C. Also, the “BAF3-FGFR1 (MIN IL3 pIC50)” value in data set [1] came out at 7.2. In addition, the IC50 on KDR (h) was 3.98e-08 M. For the same molecule, the IC50 on FGFR4 (h) is 5.01e-09 M. Besides, the pIC50 against FGFR1 (h) was 8.80. Also, in [2], the “BAF3-FGFR4 (pIC50)” value worked out at 6.6. The molecule further gave a pIC50 on FGFR3 (h) of 8.80. Moreover, on FGFR2 (h), the IC50 was 2.51e-09 M. Moreover, in [3], the “BAF3-KDR (MIN IL3 pIC50)” value came out at 5.6. The “BAF3-FGFR3 (MIN IL3 pIC50)” value in [4] was approximately 7.68.

`CNCCN(c1ccc2ncn(-c3cnn(C)c3)c(=O)c2c1)c1c(F)c(OC)cc(OC)c1F` [Compound 20] displayed a melting point of 141 °C. Besides, in data set [1], the “BAF3-FGFR1 (MIN IL3 pIC50)” value is reported as 7.6. Besides, the IC50 at KDR (h) is 1.58e-07 M. For the same molecule, the IC50 at FGFR4 (h) is 2.51e-08 M. In addition, at FGFR1 (h), the pIC50 was 8.00. Also, the “BAF3-FGFR4 (pIC50)” value in [2] amounted to 6.7. Further, the negative-log IC50 (pIC50) against FGFR3 (h) was 7.90. In addition, the IC50 on FGFR2 (h) was 1.26e-08 M. In addition, the “BAF3-KDR (MIN IL3 pIC50)” value in data set [3] worked out at 6.0. Besides, the “BAF3-FGFR3 (MIN IL3 pIC50)” value in [4] was 7.6.

As for `COc1cc(OC)c(F)c(N(Cc2ncc[nH]2)c2ccc3ncn(-c4cnn(C)c4)c(=O)c3c2)c1F` [Compound 22], the melting point was 231 °C. Further, the “BAF3-FGFR1 (MIN IL3 pIC50)” value in data set [1] was determined as 6.8. The IC50 at KDR (h) is 1.26e-07 M. At FGFR4 (h), the IC50 is 5.01e-09 M. The negative-log IC50 (pIC50) against FGFR1 (h) is 8.40. For the same molecule, in [2], the “BAF3-FGFR4 (pIC50)” value worked out at 6.7. Moreover, on FGFR3 (h), the IC50 is 3.16e-09 M. The IC50 on FGFR2 (h) was 5.01e-09 M. Moreover, the “BAF3-KDR (MIN IL3 pIC50)” value in data set [3] is 5.3. Also, the “BAF3-FGFR3 (MIN IL3 pIC50)” value in data set [4] is 7.4.

As for `COc1cc(OC)cc(C(=O)c2ccc3ncn(-c4cnn(C)c4)c(=O)c3c2)c1` [Compound 24], the melting point is 194 °C. Further, the “BAF3-FGFR1 (MIN IL3 pIC50)” value in data set [1] is listed as less than 5. In addition, the IC50 on KDR (h) was more than 1e-06 M. Further, on FGFR4 (h), the IC50 was more than 1e-06 M. For the same molecule, at FGFR1 (h), the pIC50 is less than 6.00. The “BAF3-FGFR4 (pIC50)” value in data set [2] is given as less than 5. The IC50 at FGFR3 (h) is 7.94e-07 M. For the same molecule, the IC50 on FGFR2 (h) is 7.94e-07 M. Moreover, the “BAF3-KDR (MIN IL3 pIC50)” value in [3] is reported as less than 5. For the same molecule, in data set [4], the “BAF3-FGFR3 (MIN IL3 pIC50)” value is less than 5.
